Data reported in ChEMBL document CHEMBL1201862, “PubChem BioAssay data set” (2004).
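Results reflect a 48-hour exposure of cells in 96-well plates to compound at five concentrations. GI50 is the concentration that inhibits growth by half.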 Calls of active or inactive are those of the source. Cut-off read from the data, not from the text of the source: active = GI50 up to about 1.1 µM and inactive = higher.

Experiments:
Test in all cases: NCI tumour cell line growth inhibition, 48 h
SNB-75 = tested on: SNB-75
NCI-H522 = tested on: NCI-H522
MCF7 = tested on: MCF7
SNB-19 = tested on: SNB-19
K562 = tested on: K562
IGROV-1 = tested on: IGROV-1
MDA-N = tested on: MDA-N
MDA-MB-231 = tested on: MDA-MB-231
UACC-62 = tested on: UACC-62
SK-MEL-2 = tested on: SK-MEL-2
SK-OV-3 = tested on: SK-OV-3
MDA-MB-435 = tested on: MDA-MB-435
OVCAR-4 = tested on: OVCAR-4
CAKI-1 = tested on: CAKI-1
SF-539 = tested on: SF-539
ACHN = tested on: ACHN
KM12 = tested on: KM12
TK-10 = tested on: TK-10
SK-MEL-5 = tested on: SK-MEL-5
SW-620 = tested on: SW-620
OVCAR-3 = tested on: OVCAR-3
BT-549 = tested on: BT-549
SN12C = tested on: SN12C
HCT-116 = tested on: HCT-116
SF-268 = tested on: SF-268
LOX IMVI = tested on: LOX IMVI
OVCAR-8 = tested on: OVCAR-8
HOP-92 = tested on: HOP-92
M14 = tested on: M14
PC-3 = tested on: PC-3
COLO 205 = tested on: COLO 205
T47D = tested on: T47D
EKVX = tested on: EKVX
OVCAR-5 = tested on: OVCAR-5
U-251 = tested on: U-251
HT-29 = tested on: HT-29
HCC 2998 = tested on: HCC 2998
A549 = tested on: A549
HL-60 = tested on: HL-60
NCI-H226 = tested on: NCI-H226
SF-295 = tested on: SF-295
HOP-62 = tested on: HOP-62
UACC-257 = tested on: UACC-257
SK-MEL-28 = tested on: SK-MEL-28
UO-31 = tested on: UO-31
MOLT-4 = tested on: MOLT-4
NCI/ADR-RES = tested on: NCI/ADR-RES
Malme-3M = tested on: Malme-3M
RXF 393 = tested on: RXF 393
NCI-H23 = tested on: NCI-H23
RPMI-8226 = tested on: RPMI-8226
Hs-578T = tested on: Hs-578T
DU-145 = tested on: DU-145
786-0 = tested on: 786-0
HCT-15 = tested on: HCT-15
NCI-H460 = tested on: NCI-H460

SMILES: Cc1ccc(/C=N/NC2=NCCN2)s1
- GI50 (SNB-75): > 100 µM (inactive)
- GI50 (NCI-H522): > 100 µM (inactive)
- GI50 (MCF7): > 100 µM (inactive)
- GI50 (SNB-19): > 100 µM (inactive)
- GI50 (K562): 41 µM (inactive)
- GI50 (IGROV-1): > 100 µM (inactive)
- GI50 (MDA-N): > 100 µM (inactive)
- GI50 (MDA-MB-231): > 100 µM (inactive)
- GI50 (UACC-62): > 100 µM (inactive)
- GI50 (SK-MEL-2): > 100 µM (inactive)
- GI50 (SK-OV-3): > 100 µM (inactive)
- GI50 (MDA-MB-435): > 100 µM (inactive)
- GI50 (OVCAR-4): > 100 µM (inactive)
- GI50 (CAKI-1): > 100 µM (inactive)
- GI50 (SF-539): > 100 µM (inactive)
- GI50 (ACHN): > 100 µM (inactive)
- GI50 (KM12): > 100 µM (inactive)
- GI50 (TK-10): > 100 µM (inactive)
- GI50 (SK-MEL-5): > 100 µM (inactive)
- GI50 (SW-620): > 100 µM (inactive)
- GI50 (OVCAR-3): > 100 µM (inactive)
- GI50 (BT-549): 23.3 µM (inactive)
- GI50 (SN12C): > 100 µM (inactive)
- GI50 (HCT-116): > 100 µM (inactive)
- GI50 (SF-268): > 100 µM (inactive)
- GI50 (LOX IMVI): > 100 µM (inactive)
- GI50 (OVCAR-8): > 100 µM (inactive)
- GI50 (HOP-92): > 100 µM (inactive)
- GI50 (M14): > 100 µM (inactive)
- GI50 (PC-3): > 100 µM (inactive)
- GI50 (COLO 205): > 100 µM (inactive)
- GI50 (T47D): > 100 µM (inactive)
- GI50 (EKVX): > 100 µM (inactive)
- GI50 (OVCAR-5): > 100 µM (inactive)
- GI50 (U-251): > 100 µM (inactive)
- GI50 (HT-29): > 100 µM (inactive)
- GI50 (HCC 2998): > 100 µM (inactive)
- GI50 (A549): > 100 µM (inactive)
- GI50 (HL-60): > 100 µM (inactive)
- GI50 (NCI-H226): 79.4 µM (inactive)
- GI50 (SF-295): > 100 µM (inactive)
- GI50 (HOP-62): > 100 µM (inactive)
- GI50 (UACC-257): > 100 µM (inactive)
- GI50 (SK-MEL-28): > 100 µM (inactive)
- GI50 (UO-31): 44.9 µM (inactive)
- GI50 (MOLT-4): > 100 µM (inactive)
- GI50 (NCI/ADR-RES): > 100 µM (inactive)
- GI50 (Malme-3M): > 100 µM (inactive)
- GI50 (RXF 393): > 100 µM (inactive)
- GI50 (NCI-H23): > 100 µM (inactive)
- GI50 (RPMI-8226): > 100 µM (inactive)
- GI50 (Hs-578T): > 100 µM (inactive)
- GI50 (DU-145): > 100 µM (inactive)
- GI50 (786-0): > 100 µM (inactive)
- GI50 (HCT-15): > 100 µM

SMILES: Cc1nc(C)c(C(=O)NNC(N)=S)cc1C(=O)NNC(N)=S
- GI50 (NCI-H522): > 100 µM (inactive)
- GI50 (MCF7): > 100 µM (inactive)
- GI50 (SNB-19): > 100 µM (inactive)
- GI50 (K562): > 100 µM (inactive)
- GI50 (IGROV-1): > 100 µM (inactive)
- GI50 (MDA-N): > 100 µM (inactive)
- GI50 (MDA-MB-231): > 100 µM (inactive)
- GI50 (UACC-62): > 100 µM (inactive)
- GI50 (SK-MEL-2): > 100 µM (inactive)
- GI50 (SK-OV-3): > 100 µM (inactive)
- GI50 (MDA-MB-435): > 100 µM (inactive)
- GI50 (OVCAR-4): > 100 µM (inactive)
- GI50 (CAKI-1): > 100 µM (inactive)
- GI50 (SF-539): > 100 µM (inactive)
- GI50 (ACHN): > 100 µM (inactive)
- GI50 (KM12): > 100 µM (inactive)
- GI50 (TK-10): > 100 µM (inactive)
- GI50 (SK-MEL-5): > 100 µM (inactive)
- GI50 (SW-620): > 100 µM (inactive)
- GI50 (OVCAR-3): > 100 µM (inactive)
- GI50 (BT-549): > 100 µM (inactive)
- GI50 (SN12C): > 100 µM (inactive)
- GI50 (HCT-116): > 100 µM (inactive)
- GI50 (SF-268): > 100 µM (inactive)
- GI50 (LOX IMVI): > 100 µM (inactive)
- GI50 (OVCAR-8): > 100 µM (inactive)
- GI50 (HOP-92): > 100 µM (inactive)
- GI50 (M14): > 100 µM (inactive)
- GI50 (PC-3): > 100 µM (inactive)
- GI50 (COLO 205): > 100 µM (inactive)
- GI50 (T47D): > 100 µM (inactive)
- GI50 (EKVX): > 100 µM (inactive)
- GI50 (OVCAR-5): > 100 µM (inactive)
- GI50 (U-251): > 100 µM (inactive)
- GI50 (HT-29): > 100 µM (inactive)
- GI50 (HCC 2998): > 100 µM (inactive)
- GI50 (A549): > 100 µM (inactive)
- GI50 (HL-60): > 100 µM (inactive)
- GI50 (NCI-H226): > 100 µM (inactive)
- GI50 (SF-295): > 100 µM (inactive)
- GI50 (HOP-62): > 100 µM (inactive)
- GI50 (UACC-257): > 100 µM (inactive)
- GI50 (SK-MEL-28): > 100 µM (inactive)
- GI50 (UO-31): > 100 µM (inactive)
- GI50 (MOLT-4): > 100 µM (inactive)
- GI50 (NCI/ADR-RES): > 100 µM (inactive)
- GI50 (RXF 393): > 100 µM (inactive)
- GI50 (NCI-H23): > 100 µM (inactive)
- GI50 (RPMI-8226): > 100 µM (inactive)
- GI50 (Hs-578T): > 100 µM (inactive)
- GI50 (DU-145): > 100 µM (inactive)
- GI50 (786-0): > 100 µM (inactive)
- GI50 (NCI-H460): > 100 µM (inactive)
- GI50 (HCT-15): > 100 µM
